Changes are numbered by the printed parent chain.
Tests used:
[1] = molecular target: T1, hAR (human androgen receptor) (Homo sapiens, UniProt P10275); experiment: Competitive binding analysis on baculovirus/Sf9 generated hAR extracts with 3H-DHT tracer
T1 construct: made in house; host or cells: baculovirus/Sf9 insect cells
T1 sequence (P10275 1-920): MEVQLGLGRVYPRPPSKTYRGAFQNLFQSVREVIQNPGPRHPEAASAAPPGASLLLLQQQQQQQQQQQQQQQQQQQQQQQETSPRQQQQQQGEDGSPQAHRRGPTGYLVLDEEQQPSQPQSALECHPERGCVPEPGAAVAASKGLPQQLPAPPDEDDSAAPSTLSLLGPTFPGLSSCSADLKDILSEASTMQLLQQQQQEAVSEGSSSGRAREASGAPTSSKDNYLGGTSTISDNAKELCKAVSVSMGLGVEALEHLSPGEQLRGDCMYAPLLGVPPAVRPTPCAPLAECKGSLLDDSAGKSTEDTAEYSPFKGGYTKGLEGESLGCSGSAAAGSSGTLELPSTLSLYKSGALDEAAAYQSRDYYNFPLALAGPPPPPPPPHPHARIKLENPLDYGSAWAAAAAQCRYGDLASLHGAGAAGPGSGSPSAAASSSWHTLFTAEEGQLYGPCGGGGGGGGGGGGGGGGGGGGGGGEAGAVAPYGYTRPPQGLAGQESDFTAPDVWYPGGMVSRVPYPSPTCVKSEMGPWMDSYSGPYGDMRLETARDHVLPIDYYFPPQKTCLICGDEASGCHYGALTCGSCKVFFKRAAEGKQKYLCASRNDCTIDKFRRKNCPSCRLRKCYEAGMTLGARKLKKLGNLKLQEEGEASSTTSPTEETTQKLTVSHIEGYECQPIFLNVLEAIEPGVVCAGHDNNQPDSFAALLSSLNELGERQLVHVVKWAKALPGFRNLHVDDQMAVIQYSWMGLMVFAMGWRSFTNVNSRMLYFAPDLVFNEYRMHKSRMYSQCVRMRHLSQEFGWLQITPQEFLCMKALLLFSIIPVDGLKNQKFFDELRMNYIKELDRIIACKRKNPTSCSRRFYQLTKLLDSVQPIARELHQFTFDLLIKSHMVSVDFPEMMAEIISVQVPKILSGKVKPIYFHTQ
Procedure: The description below describes how the assay was carried out.
Competitive binding analysis was performed on baculovirus/Sf9 generated hAR extracts in the presence or absence of different concentrations of test agent and a fixed concentration of ^3H-dihydrotestosterone (^3H-DHT) as tracer. This binding assay method is a modification of a protocol previously described (Liao S., et. al. J. Steroid Biochem. 20:11-17 1984). Briefly, progressively decreasing concentrations of compounds are incubated in the presence of hAR extract (Chang et al. P.N.A.S. Vol. 89, pp. 5546-5950,1992), hydroxylapatite, and 1 nM ^3 H-DHT for one hour at 4° C. Subsequently, the binding reactions are washed three times to completely remove excess unbound ^3 H-DHT. hAR bound ^3H-DHT levels are determined in the presence of compounds (=i.e competitive binding) and compared to levels bound when no competitor is present (=i.e. maximum binding). Compound binding affinity to the hAR is expressed as the concentration of compound at which one half of the maximum binding is inhibited.

androgen receptor = molecular target: T2, androgen receptor (Homo sapiens, UniProt P10275); experiment: AR antagonist cell assay, MDA-MB453-MMTV clone 54-19 luciferase reporter; type: cell-based; details: read-out: AR Cell IC50; MDA-MB453-MMTV clone 54-19, 100 pM DHT, 17 hr; mean of multiple tests
T2 sequence (P10275 1-920 Q868H): T1 sequence (P10275 1-920) with Q868H
Procedure: The compounds ability to antagonize the effects of androgen on the androgen receptor were determined in a whole cell assay as described immediately below.
This cell line is a stable transfected cell line with MDA-MB453 cell background (a human breast tumor cell line expressing androgen receptor). A MMTV minimal promoter containing ARE was first cloned in front of a firefly luciferase reporter gene. Then the cascade was cloned into transfection vector pUV120puro. Electroporation method was used for transfecting MDA-MB-453 cell. Puromycin resistant stable cell line was selected.
• 1. Cells are maintained in culture medium, splitting cells when they reach 80-90% confluence • 2. To test compounds, 10,000 cells/well are plated to opaque 96 cell culture plate in 100 ul/well plating medium, culture for overnight at 37° C. in cell culture incubator • 3. Carefully remove plating medium, then add 80 ul/well of pre-warmed assay medium, add 10 ul/well testing compound (final concentration at) 1000 nM, 200 nM, 40 nM, 8 nM, 1.6 nM, and 0.32 nM), incubate at 37° C. for 30 minutes • 4. Add 10 ul/well freshly prepared DHT (final concentration at 100 pM) to each well, incubate at 37° C. for 17 hr (overnight) • 5.
The results are reported as the mean of multiple tests as described below (the numbers of tests are indicated in the footnote). N.D. denotes that the compound was not tested.

Male C3H/HeN mice = experiment: Modified telogen conversion assay (hair growth, induction of anagen); type: in vivo; details: test concentration of 3% w/v, topical
From the text: It has been discovered that male C3H/HeN mice may be used in the telogen conversion assay, when evaluating anti-androgen test compounds. Thus, the model relates to a modification of the existing telogen conversion assay. Male C3H/HeN mice approximately 7 weeks old are utilized. These animals are also uniformly in telogen, like their female counterparts. However, once shaven, the androgens inherently present in these male mice inhibit the conversion of the hair follicles to the anagen phase. An anti-androgen will block this androgenic effect and the follicles will convert to anagen, like their female counterparts.
Male C3H/HeN mice, 6 to 7 weeks old (Charles River Laboratories, Raleigh, N.C.) were used for the study. Fur was clipped from the dorsal region of the mice prior to initiation of the study. Only mice with pink skin, a visual indication of the telogen phase, were selected for inclusion in the study.
The test compound was dissolved in a vehicle consisting of propylene glycol (30%) and ethanol (70%) to achieve a concentration of either 0.2% w/v, 0.5% w/v, 1% w/v or 3% w/v. The relevant dose was applied topically to the clipped dorsal region of the mice in one test group (7-10 mice) in a volume of 20 μl/cm^2. A third group of animals received only the vehicle to serve as a control. Treatments were applied twice daily for 4 weeks.
The treatment area was observed and graded every other day for signs of hair growth. The hair growth response was quantified by recording, for each animal, the day on which signs of hair growth first appeared over the treated area. The first sign of anagen was the darkening of skin color as melanocytes in the follicles started to synthesize melanin in preparation for the production of pigmented hairs. […] The percentage of mice showing signs of hair growth in both the treatment group and the control group is graphically depicted in FIG. 1.

[2] = after 7 years of treatment; cited from earlier work

Row | Structure (SMILES) | IC50 [1] | IC50 (androgen receptor) | rate of hair growth versus vehicle control (Male C3H/HeN mice) | increase in spinal BMD [2]
1 | CC(C)C(O)C(C)(C)COc1ccc(C#N)c(Cl)c1 (stereo not shown) [Example 27, 2-Chloro-4-(3-Hy-droxy-2,2,4-trimethyl-pentyloxy)-benzonitrile] | 63 nM | 0.04 nM | did not exceed that of the vehicle control | 
2 | NCCCC(O)(P(=O)(O)O)P(=O)(O)O [alendronate] |  |  |  | ≤ 11%

Reference: patent publication US7576128B2 (priority 2004, dated 2009)
